{"source": "patent US10190094B2", "about": "“Methods and compositions related to induced sensory neurons” (priority 2013, dated 2019)", "key": {"MEFs": {"test_system": "MEFs", "assay": "Reprogramming of MEFs in presence of EdU or mitotic inhibitor AraC", "format": "cell-based, mouse", "description": "Immunohistochemistry, and RT-PCR: For immunofluorescence staining, cells were fixed 4% paraformaldehyde for 10 minutes at room temperature. Cells were then washed three times with PBS and subsequently permeabilized with 0.1% Triton X-100 (Sigma) in PBS. After washing and permeabilization cells were blocked in 5% horse serum for thirty minutes at room temperature. Primary staining was performed overnight at 4° C. in block. Secondary antibodies were diluted in blocking solution and stained room temperature for one hour. EdU staining was performed using Click-it EdU kit (C10337;Invitrogen) following manufacturer's instructions. […]\nWe examined whether the observed reprogramming of fibroblasts to the somatic sensory lineage requires cell division or specialized embryonic precursors. […] Second, to further block proliferation we applied the mitotic inhibitor arabinofuranosyl cytidine (AraC) to cultures continuously from three days post induction and quantified the number of Map2-positive cells on day 14."}, "[1]": {"test_system": "BN1 and BN2 iSNs (TrpA1, TrpM8, TrpV1)", "assay": "Calcium imaging of mouse iSNs exposed to Trp channel ligands (Map2::GCAMP5.G)", "format": "cell-based"}, "[2]": {"test_system": "Human iSNs (TRPA1, TRPM8, TRPV1)", "assay": "Calcium imaging of human iSNs exposed to TRP channel ligands", "format": "cell-based"}, "[3]": {"conditions": "mouse BN1 iSNs, KCl responders, 10 μM capsaicin, 100 μM menthol, 100 μM mustard oil"}, "[4]": {"conditions": "mouse BN2 iSNs, KCl responders, 10 μM capsaicin, 100 μM menthol, 100 μM mustard oil"}, "[5]": {"conditions": "human BN1 iSNs, KCl responders, 10 μM capsaicin, 100 μM menthol, 100 μM mustard oil"}, "[6]": {"conditions": "human BN2 iSNs, KCl responders, 10 μM capsaicin, 100 μM menthol, 100 μM mustard oil"}}, "note": "Values joined by “and” are separate entries in the source; they are usually repeats but may differ in a detail not shown here. Equal entries are not always repeated. Where two headings read alike, the source gives them in different places."}
{"smiles": "Nc1ccn([C@@H]2O[C@H](CO)[C@@H](O)[C@@H]2O)c(=O)n1", "note": "[AraC, arabinofuranosyl cytidine]", "values": [{"measurement": "inhibition of proliferative cells", "setting": "MEFs; 4 μM", "value": "> 90", "unit": "%"}, {"measurement": "effect of mitotic inhibition on number of neurons (Map2-positive cells) produced during reprogramming", "setting": "MEFs; applied continuously from three days post induction, counted day 14, BN1 or BN2", "value": "did not significantly alter the number of neurons"}]}
{"smiles": "COc1cc(CNC(=O)CCCC/C=C/C(C)C)ccc1O", "note": "[capsaicin]", "values": [{"measurement": "iSNs exhibiting calcium transients in response to ligand", "setting": "[1]; [3]", "value": "19.7%±3.0"}, {"measurement": "iSNs exhibiting calcium transients in response to ligand", "setting": "[1]; [4]", "value": "21.2%±3.5"}, {"measurement": "iSNs exhibiting calcium transients in response to ligand", "setting": "[2]; [5]", "value": "4.4%±1.7"}, {"measurement": "iSNs exhibiting calcium transients in response to ligand", "setting": "[2]; [6]", "value": "5.9%±3.3"}]}
{"smiles": "CC1CCC(C(C)C)C(O)C1", "note": "(stereo not drawn) [menthol]", "values": [{"measurement": "iSNs exhibiting calcium transients in response to ligand", "setting": "[1]; [3]", "value": "15.4%±2.6"}, {"measurement": "iSNs exhibiting calcium transients in response to ligand", "setting": "[1]; [4]", "value": "17.4%±4.3"}, {"measurement": "iSNs exhibiting calcium transients in response to ligand", "setting": "[2]; [5]", "value": "4.4%±1.4"}, {"measurement": "iSNs exhibiting calcium transients in response to ligand", "setting": "[2]; [6]", "value": "6.0%±2.3"}]}
{"smiles": "C=CCN=C=S", "note": "[mustard oil, allyl isothiocyanate]", "values": [{"measurement": "iSNs exhibiting calcium transients in response to ligand", "setting": "[1]", "value": "12.9%±3.8 and 12.5%±3.4"}, {"measurement": "iSNs exhibiting calcium transients in response to ligand", "setting": "[2]", "value": "12.8%±4.5 and 8.8%±3.7"}]}
